pIC50: −log10 of the molar value.
Key:
[1] = test system: STING protein; IRF/IFN signaling in THP-1 R232 cells; experiment: Cell based reporter assay, THP-1 R232 IRF-luc; details: Homo sapiens, THP1-dual-KI R232 cells, IRF luciferase reporter; for Emax: maximum measured activity, read-out: THP 1-dual-KI R232_IRF(Luciferase)_Activity Maximum measured (%); for pIC50: read-out: THP 1-dual-KI R232_IRF(Luciferase) IC50
Description: Cell reporter assays were developed to measure the ability of compounds of the application to activate the STING protein and activate both IRF/IFN and the NFkB signaling pathways in the myeloid derived cell line THP-1, which is commercially available from several suppliers. Briefly, THP-1 monocytes were transfected and selected for stable integration of 2 reporter constructs. Clones incorporating stably integrated vectors were further selected by antibiotic resistance to blastocidin and zeocin. The reporter constructs included: (1) firefly luciferase reporter gene under the control of an ISG54 promoter fused to five interferon (IFN)-stimulated response elements to measure IRF transcription factor binding activity and (2) secreted embryonic alkaline phosphatase reporter gene under transcription control of an IFN-beta minimal promoter fused to 5 copies of the NFkB consensus transcriptional response element and 3 copies of the c-Rel binding site.
The resulting THP-1 cell line was further modified to incorporate 3 amino acid point mutations (H71R A230G Q293R). This modification of the native TMEM173 gene in THP-1 cells (HAQ) was designed to produce a cell reporter that expressed the most common allelic variant in the human population (THP-1 R232, available from InvivoGen). Alternatively, the TMEM173 gene was knocked out to provide a congenic control to counter-screen for compound activation that was independent of the STING protein (THP-1 STING KO).
Once cell lines were established, reporter assay protocols were developed and optimized to screen small molecule compounds for agonist activity. Assay optimization for efficacy and Z′ value included titration of the following parameters:
• 1. Cell pre-activation with PMA • 2. Cell seeding density • 3. DMSO tolerance • 4. Media selection • 5. FBS concentration • 6. Incubation time • 7. Co-Assessment of cell viability by CTG assay • 8. Appropriate HPE and ZPE controls • 9. Dose Response Titration
• 1. No pre-activation with PMA • 2. 5×10^4 cells/well in 96 well plate format • 3. <0.5% DMSO • 4. RPMI 1640+2.5 mg/ml glucose • 5. 10% FBS • 6. 14-18 hr incubation • 7. Cell Titer Glo reagent (Promega) following supernatant removal • 8. […] 8 point, 2 fold, duplicate starting at 150 μM

[2] = target: hSTING-R232 (aa140-379) (Homo sapiens, UniProt Q86WV6, H232R); experiment: STING differential scanning fluorimetry (DSF) assay, hSTING WT; details: shift in melting temperature apo vs ligand-bound
Description: A STING DSF assay was performed to determine protein thermostability shift in response to small molecule ligand binding. A STING thermnostability shift assay based on differential scanning fluorimetry was used to measure (1) the net shift in melting temperature (ΔTm) between the apo and ligand-bound states of the STING protein and (2) the concentration of the thermal denaturation transition (EC50) as a surrogate measure of binding affinity (Kd). […] Protein in assay buffer was transferred to a 384 well plate and incubated with the hydrophobic fluorescent dye SYBR Orange. A temperature ramp was applied to the plate and the resulting dye fluorescence was plotted as a function of temperature. The first derivative of this function (dF/dT) was then used to extrapolate the melting temperature of the protein at various concentrations of compound and determine the thermal denaturation profile of a protein/compound complex.
5 μM purified Target STING Protein • 3. 8 μM Sypro Orange Dye • 4. Buffer: 100 mM NaCl, 30 mM HEPES, pH 7.5 • 5. Thermal Ramp: 0.5° C./min • 6. <1% DMSO • 7. 11 point, 2 fold dilution, duplicate, 300 μM high concentrations • 8.

[3] = target: human STING protein (140-379), WT (Homo sapiens, UniProt Q86WV6, H232R); experiment: Radiometric filtration binding competition assay (FBA), hSTING-WT; details: WT-hSWAT IC50 (μM), WT_FBA_HIS-SUMO-hSWAT; wild-type human STING; competition with [H3] 2′3′cGAMP
Sequence of human STING protein (140-379), WT (Q86WV6 140-379 H232R): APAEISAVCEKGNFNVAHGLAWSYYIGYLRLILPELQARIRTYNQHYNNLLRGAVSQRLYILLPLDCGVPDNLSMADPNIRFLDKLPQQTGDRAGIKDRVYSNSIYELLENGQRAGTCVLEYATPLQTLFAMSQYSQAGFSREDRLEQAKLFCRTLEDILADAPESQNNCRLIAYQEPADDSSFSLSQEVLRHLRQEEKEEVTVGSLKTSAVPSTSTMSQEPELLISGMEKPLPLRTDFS

Sequence of hSTING-R232 (aa140-379) (Q86WV6 140-379 H232R): as above

Row | Structure (SMILES) | pIC50 [1] | WT_DSF_hSWAT Tm Shift (° C.) [2] | IC50 [3] [µM] | Emax [1] [%]
1 | COc1c(Cl)ccc2c(=O)c3cccc(OCCO)c3n(CC(=O)O)c12 [Compound 61] | < 3.82 | B (“B” = 0-2° C.) | > 300 | 5 to 25
2 | COc1c(Cl)ccc2c(=O)c3ccc(C4CCN(C)CC4)cc3n(CC(=O)O)c12 [Compound 53] | < 3.82 | C (“C” = 2-7° C.) | 100 to 300 | 5 to 25
3 | CN(C)c1c(Cl)ccc2c(=O)c3ccc(-c4ccnnc4)cc3n(CC(=O)O)c12 [Compound 71] | > 4.30 | D (“D” >7° C.) | 20 to 100 | > 50
4 | CN(C)c1c(Cl)ccc2c(=O)c3ccc(C4=CCN(C(=O)OC(C)(C)C)C4)cc3n(CC(=O)O)c12 [Compound 25] | > 4.30 | D (“D” >7° C.) | < 20 | > 50
5 | Cc1ccc2c(=O)c3ccc(Cl)c(C(C)C)c3n(CC(=O)O)c2c1 [Compound 46] | < 3.82 | D (“D” >7° C.) | > 300 | 5 to 25
6 | COCCOc1cccc2c(=O)c3ccc(Cl)c(OC)c3n(CC(=O)O)c12 [Compound 60] | < 3.82 | B (“B” = 0-2° C.) | > 300 | 5 to 25
7 | CN(C)c1c(Cl)ccc2c(=O)c3cc(-c4ccccc4)ccc3n(CC(=O)O)c12 [Compound 30] | > 4.30 | D (“D” >7° C.) | < 20 | 25 to 50
8 | CN(C)c1c(Cl)ccc2c(=O)c3ccc(-c4ccco4)cc3n(CC(=O)NS(C)(=O)=O)c12 [Compound 56] | < 3.82 | D (“D” >7° C.) | < 20 | –
9 | Cc1cc2c(cc1Br)c(=O)c1ccc(Cl)c(N(C)C)c1n2CC(=O)O [Compound 34] | > 4.30 | C (“C” = 2-7° C.) | 20 to 100 | 5 to 25
10 | Cc1ccc2c(=O)c3ccc(C(C)(C)C)cc3n(CC(=O)O)c2c1N(C)C [Compound 39] | > 4.30 | D (“D” >7° C.) | < 20 | > 50
11 | COc1ccccc1Nc1ccc2c(=O)c3ccc(Cl)c(N(C)C)c3n(CC(=O)O)c2c1 [Compound 90] | > 4.30 | D (“D” >7° C.) | < 20 | > 50
12 | CN(C)c1c(Cl)ccc2c(=O)c3ccc(C4=CCCCC4)cc3n(CC(=O)O)c12 [Compound 23] | > 4.30 | D (“D” >7° C.) | < 20 | > 50

More lines, main results first:

Row | pIC50 [1] | WT_DSF_hSWAT Tm Shift (° C.) [2] | IC50 [3] [µM] | Structure (SMILES) | Emax [1] [%]
13 | > 4.30 | D (“D” >7° C.) | 20 to 100 | CN(C)c1c(Cl)ccc2c(=O)c3ccc(C4(C#N)CC4)cc3n(CC(=O)O)c12 [Compound 84] | > 50
14 | > 4.30 | D (“D” >7° C.) | < 20 | CN(C)c1c(Cl)ccc2c(=O)c3ccc(-c4ccccn4)cc3n(CC(=O)O)c12 [Compound 10] | > 50
15 | > 4.30 | D (“D” >7° C.) | < 20 | CC(C)c1ccc2c(=O)c3ccc(Cl)c(N(C)C)c3n(CC(=O)O)c2c1 [Compound 58] | > 50
16 | > 4.30 | D (“D” >7° C.) | 20 to 100 | Cc1ccc2c(=O)c3ccc(Cl)c(N(C)C)c3n(CC(=O)NS(C)(=O)=O)c2c1 [Compound 55] | > 50
17 | > 4.30 | D (“D” >7° C.) | < 20 | CC(C)c1ccc2c(=O)c3c(O)cc(Cl)c(N(C)C)c3n(CC(=O)O)c2c1 [Compound 21] | > 50
18 | > 4.30 | D (“D” >7° C.) | < 20 | CN(C)c1c(Cl)ccc2c(=O)c3cc(Cl)c(C(C)(C)C)cc3n(CC(=O)O)c12 [Compound 88] | > 50
19 | > 4.30 | D (“D” >7° C.) | < 20 | C=Cc1cc2c(cc1Cl)c(=O)c1ccc(Cl)c(N(C)C)c1n2CC(=O)O [Compound 89] | > 50
20 | > 4.30 | C (“C” = 2-7° C.) | 20 to 100 | CN(C)c1c(Cl)ccc2c(=O)c3ccc(-n4ccnc4)cc3n(CC(=O)O)c12 [Compound 5] | > 50
21 | > 4.30 | D (“D” >7° C.) | < 20 | CN(C)c1c(Cl)ccc2c(=O)c3ccc(Nc4cccnc4)cc3n(CC(=O)O)c12 [Compound 80] | > 50
22 | > 4.30 | C (“C” = 2-7° C.) | < 20 | CN(C)c1c(Cl)ccc2c(=O)c3ccc(-c4cnccn4)cc3n(CC(=O)O)c12 [Compound 70] | > 50
23 | > 4.30 | D (“D” >7° C.) | < 20 | CN(C)c1c(Cl)ccc2c(=O)c3ccc(-n4cccn4)cc3n(CC(=O)O)c12 [Compound 6] | > 50
24 | > 4.30 | D (“D” >7° C.) | < 20 | CN(C)c1c(Cl)ccc2c(=O)c3ccc(C4=CCN(C(=O)OC(C)(C)C)CC4)cc3n(CC(=O)O)c12 [Compound 15] | > 50
25 | > 4.30 | D (“D” >7° C.) | < 20 | C=C(C)c1ccc2c(=O)c3ccc(Cl)c(N(C)C)c3n(CC(=O)O)c2c1 [Compound 24] | > 50
26 | > 4.30 | D (“D” >7° C.) | 20 to 100 | COc1ccc2c(=O)c3ccc(Cl)c(N(C)C)c3n(CC(=O)O)c2c1 [Compound 2] | > 50
27 | > 4.30 | D (“D” >7° C.) | < 20 | CC/C=C(\CC)c1ccc2c(=O)c3ccc(Cl)c(N(C)C)c3n(CC(=O)O)c2c1 [Compound 19] | > 50
28 | > 4.30 | D (“D” >7° C.) | < 20 | C=C(C)c1c(Cl)ccc2c(=O)c3ccc(C)cc3n(CC(=O)O)c12 [Compound 47] | > 50
29 | > 4.30 | D (“D” >7° C.) | < 20 | CN(C)c1c(Cl)ccc2c1N(CC(=O)O)c1cc(Nc3ccccc3F)ccc1N2C [Compound 78] | > 50
30 | > 4.30 | D (“D” >7° C.) | < 20 | CN(C)c1c(Cl)ccc2c(=O)c3ccc(-c4ccncc4)cc3n(CC(=O)O)c12 [Compound 8] | > 50

Source: US20220227761A1, “OXOACRIDINYL ACETIC ACID DERIVATIVES AND METHODS OF USE” (STINGTHERA, INC., priority 2019, published 2022)
